Test results reported in PubChem BioAssay (NCI).
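Assay format: 96-well plates, 48-hour exposure. TGI denotes the concentration required for complete inhibition of growth.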

What was measured:
Experiment in all cases: DTP human tumour cell line panel, 48 h
HS 578T breast = tested on: HS 578T breast
HOP-62 NSCLC = tested on: HOP-62 NSCLC
RXF 393 renal = tested on: RXF 393 renal
LOX IMVI melanoma = tested on: LOX IMVI melanoma
PC-3 prostate = tested on: PC-3 prostate
IGROV1 ovarian = tested on: IGROV1 ovarian
K-562 leukemia = tested on: K-562 leukemia
CCRF-CEM leukemia = tested on: CCRF-CEM leukemia
SK-OV-3 ovarian = tested on: SK-OV-3 ovarian
TK-10 renal = tested on: TK-10 renal
U251 CNS = tested on: U251 CNS
UO-31 renal = tested on: UO-31 renal
SN12C renal = tested on: SN12C renal
SK-MEL-5 melanoma = tested on: SK-MEL-5 melanoma
HL-60(TB) leukemia = tested on: HL-60(TB) leukemia
UACC-257 melanoma = tested on: UACC-257 melanoma
UACC-62 melanoma = tested on: UACC-62 melanoma
SNB-19 CNS = tested on: SNB-19 CNS
OVCAR-8 ovarian = tested on: OVCAR-8 ovarian
SW-620 colon = tested on: SW-620 colon
MDA-MB-435 = tested on: MDA-MB-435
NCI-H23 lung = tested on: NCI-H23 lung
MCF7 breast = tested on: MCF7 breast
SNB-75 CNS = tested on: SNB-75 CNS
A549 NSCLC = tested on: A549 NSCLC
786-0 renal = tested on: 786-0 renal
HCT-15 colon = tested on: HCT-15 colon
OVCAR-4 ovarian = tested on: OVCAR-4 ovarian
A498 renal = tested on: A498 renal
SF-539 CNS = tested on: SF-539 CNS
M14 melanoma = tested on: M14 melanoma
MDA-N = tested on: MDA-N
DU-145 prostate = tested on: DU-145 prostate
SR leukemia = tested on: SR leukemia
CAKI-1 renal = tested on: CAKI-1 renal
HCT-116 colon = tested on: HCT-116 colon
NCI-H226 lung = tested on: NCI-H226 lung
MDA-MB-231 breast = tested on: MDA-MB-231 breast
BT-549 breast = tested on: BT-549 breast
HCC-2998 colon = tested on: HCC-2998 colon
HOP-92 NSCLC = tested on: HOP-92 NSCLC
MALME-3M melanoma = tested on: MALME-3M melanoma
EKVX NSCLC = tested on: EKVX NSCLC
NCI-H460 lung = tested on: NCI-H460 lung
OVCAR-5 ovarian = tested on: OVCAR-5 ovarian
ACHN renal = tested on: ACHN renal
NCI/ADR-RES ovarian = tested on: NCI/ADR-RES ovarian
T-47D breast = tested on: T-47D breast
SF-268 CNS = tested on: SF-268 CNS
NCI-H522 lung = tested on: NCI-H522 lung
SF-295 CNS = tested on: SF-295 CNS
SK-MEL-28 melanoma = tested on: SK-MEL-28 melanoma
HT29 colon = tested on: HT29 colon
OVCAR-3 ovarian = tested on: OVCAR-3 ovarian
SK-MEL-2 melanoma = tested on: SK-MEL-2 melanoma
KM12 colon = tested on: KM12 colon
COLO 205 colon = tested on: COLO 205 colon
MOLT-4 leukemia = tested on: MOLT-4 leukemia

Compound: CCCCCCCCC/C=C1/CC(CO)(COC(=O)CC(C(C)C)C(C)C)OC1=O (stereo not drawn)
- TGI (HS 578T breast): 3.91 µM
- TGI (HOP-62 NSCLC): 17.4 µM
- TGI (RXF 393 renal): 27.8 µM
- TGI (LOX IMVI melanoma): 24.7 µM
- TGI (PC-3 prostate): 21.3 µM
- TGI (IGROV1 ovarian): 29.1 µM
- TGI (K-562 leukemia): 28.6 µM
- TGI (CCRF-CEM leukemia): 25 µM
- TGI (SK-OV-3 ovarian): 31.5 µM
- TGI (TK-10 renal): 15.1 µM
- TGI (U251 CNS): 25.6 µM
- TGI (UO-31 renal): 18.1 µM
- TGI (SN12C renal): 18 µM
- TGI (SK-MEL-5 melanoma): 21.9 µM
- TGI (HL-60(TB) leukemia): 15.4 µM
- TGI (UACC-257 melanoma): 26 µM
- TGI (UACC-62 melanoma): 25.6 µM
- TGI (SNB-19 CNS): 23.9 µM
- TGI (OVCAR-8 ovarian): 29.8 µM
- TGI (SW-620 colon): 19 µM
- TGI (MDA-MB-435): 19.6 µM
- TGI (NCI-H23 lung): 26.9 µM
- TGI (MCF7 breast): 24.4 µM
- TGI (SNB-75 CNS): 18.9 µM
- TGI (A549 NSCLC): 13.9 µM
- TGI (786-0 renal): 16.1 µM
- TGI (HCT-15 colon): 29 µM
- TGI (OVCAR-4 ovarian): 28.4 µM
- TGI (A498 renal): 12.6 µM
- TGI (SF-539 CNS): 24.2 µM
- TGI (M14 melanoma): 20.4 µM
- TGI (MDA-N): 18.3 µM
- TGI (DU-145 prostate): 25.3 µM
- TGI (SR leukemia): > 54.2 µM
- TGI (CAKI-1 renal): 17.4 µM
- TGI (HCT-116 colon): 26.6 µM
- TGI (NCI-H226 lung): 21.5 µM
- TGI (MDA-MB-231 breast): 15.6 µM
- TGI (BT-549 breast): 27.7 µM
- TGI (HCC-2998 colon): 9.86 µM
- TGI (HOP-92 NSCLC): 15.8 µM
- TGI (MALME-3M melanoma): 14.3 µM
- TGI (EKVX NSCLC): 20.1 µM
- TGI (NCI-H460 lung): 18.2 µM
- TGI (OVCAR-5 ovarian): 24.6 µM
- TGI (ACHN renal): 18.6 µM
- TGI (NCI/ADR-RES ovarian): 28.1 µM
- TGI (T-47D breast): 19 µM
- TGI (SF-268 CNS): 25 µM
- TGI (NCI-H522 lung): 23.6 µM
- TGI (SF-295 CNS): 16.2 µM
- TGI (SK-MEL-28 melanoma): 31.8 µM
- TGI (HT29 colon): 29.9 µM
- TGI (OVCAR-3 ovarian): 27.6 µM
- TGI (SK-MEL-2 melanoma): 29.7 µM
- TGI (KM12 colon): 23.1 µM
- TGI (COLO 205 colon): 4.64 µM
- TGI (MOLT-4 leukemia): 35.4 µM
